This is an account of results in PMC12024912, “Druggability Studies of Benzene Sulfonamide Substituted Diarylamide (E3) as a Novel Diuretic” (Biomedicines, 2025).

One test relates to mice. As to the kind of experiment: Diuretic effect of single intragastric administration in mice (metabolic cages). Format: in vivo, mouse. On the procedure: In a single-dose administration experiment, male wild-type (WT) mice, UT-B^-/- mice, UT-A1^-/- mice, or SD rats were adapted in metabolic cages for 3 d. Food and water were provided ad libitum throughout the experiment. Prior to administration, the bladder of each animal was emptied through gentle abdominal massage, and urine was collected from the metabolic cages every 2 h. Compound E3, suspended in 0.5% CMC-Na at an appropriate concentration, was administered intragastric gavage to the mice or rats (0.16, 0.8, 4, or 20 mg/kg). Vehicle control comprised 0.5% (w/v) CMC-Na. Urinary parameters were determined through the following: volume: Gravimetric analysis (1 g/mL density assumption); osmolality: freezing-point osmometry (Micro-osmometer, […] Associates, Norwood, MA, USA); and urea: diacetyl oxime colorimetry (QuantiChrom® kit, Elabscience, Wuhan, China). In long-term (7 d) diuretic activity experiments, male WT mice, UT-B^-/- mice, UT-A1^-/- mice, and SD rats were acclimatized in metabolic cages (Ugo Basile, Comerio, VA, Italy) for 3 d. Food and water were provided ad libitum throughout the experiment. E3 was suspended in 0.5% CMC-Na and administered at a dose of 4 or 20 mg/kg by intragastric gavage. Urine was collected by metabolic cages every 24 h. Body weight was measured daily. At 4 h after the final administration, a blood sample was obtained by heart puncture. Inner medulla and outer medulla tissue homogenates were prepared, and the supernatant after centrifugation was analyzed for solute concentration and osmolality. Urinary osmolality and urea concentration were measured as above. Serum Na^+, K^+, and Cl^- were measured in a clinical chemistry laboratory, while serum creatinine, ALT, and AST were measured through specific reagent kits (NJJC Bio, Nanjing, China).

The next test concerns the target T1, hERG K+ channel (Homo sapiens, UniProt Q12809).
T1 construct: expressed in transfected cells; host or cells: CHO-hERG cells
Put plainly: hERG K+ channel tail current, QPatch, CHO-hERG cells. Format: cell-based. The procedure:
CHO-hERG cells were maintained in F12 medium (Gibco, Thermo Fisher Scientific, Waltham, MA, USA) containing 10% FBS and 0.5 mg/mL Geneticin (Invitrogen, Thermo Fisher Scientific, Waltham, MA, USA) under standard culture conditions (37 °C, 5% CO2). Cells were seeded 2 days prior to reaching 70% confluency, then washed with PBS and detached using 5 mL Detachin (Genlantis, San Diego, CA, USA) at 37 °C for 2~3 min. Cell suspensions (2 × 10^6 cells/mL in F12) were prepared and equilibrated for 20 min in the QStir station of the QPatch-16 system (Sophion Bioscience, Copenhagen, Denmark) before electrophysiological recordings.
hERG channel tail currents were assessed using the QPatch automated platform. Recording solutions contained (mM): Internal: KCl 120, CaCl2 5.374, MgCl2 1.75, KOH 31.25, EGTA 10, HEPES 10, Na2ATP 4 (pH 7.2); External: NaCl 145, KCl 4, MgCl2 1, CaCl2 2, HEPES 10, glucose 10 (pH 7.4)
Cells were voltage-clamped at −80 mV with series resistance monitored during −100 mV hyperpolarization. The stimulation protocol included: (1) 200 ms baseline at −50 mV; (2) 2s depolarization to +20 mV; and (3) tail current recording at −50 mV. Signals were acquired at 2 kHz through the integrated Bessel filter. Concentration-response relationships were established by sequential compound applications bracketed with saline controls for normalization.
In general terms: Block of hERG is tested as a sign of cardiac risk.

[1] abbreviates: UT-A1−/− mice, 20 mg/kg single dose.
Setting [2] is: UT-B−/− mice, 20 mg/kg single dose.
The mark [3] stands for this setting: mice, single intragastric gavage.

As usually defined, the IC50 is the concentration that gives 50% inhibition.

T1 sequence (Q12809 whole entry): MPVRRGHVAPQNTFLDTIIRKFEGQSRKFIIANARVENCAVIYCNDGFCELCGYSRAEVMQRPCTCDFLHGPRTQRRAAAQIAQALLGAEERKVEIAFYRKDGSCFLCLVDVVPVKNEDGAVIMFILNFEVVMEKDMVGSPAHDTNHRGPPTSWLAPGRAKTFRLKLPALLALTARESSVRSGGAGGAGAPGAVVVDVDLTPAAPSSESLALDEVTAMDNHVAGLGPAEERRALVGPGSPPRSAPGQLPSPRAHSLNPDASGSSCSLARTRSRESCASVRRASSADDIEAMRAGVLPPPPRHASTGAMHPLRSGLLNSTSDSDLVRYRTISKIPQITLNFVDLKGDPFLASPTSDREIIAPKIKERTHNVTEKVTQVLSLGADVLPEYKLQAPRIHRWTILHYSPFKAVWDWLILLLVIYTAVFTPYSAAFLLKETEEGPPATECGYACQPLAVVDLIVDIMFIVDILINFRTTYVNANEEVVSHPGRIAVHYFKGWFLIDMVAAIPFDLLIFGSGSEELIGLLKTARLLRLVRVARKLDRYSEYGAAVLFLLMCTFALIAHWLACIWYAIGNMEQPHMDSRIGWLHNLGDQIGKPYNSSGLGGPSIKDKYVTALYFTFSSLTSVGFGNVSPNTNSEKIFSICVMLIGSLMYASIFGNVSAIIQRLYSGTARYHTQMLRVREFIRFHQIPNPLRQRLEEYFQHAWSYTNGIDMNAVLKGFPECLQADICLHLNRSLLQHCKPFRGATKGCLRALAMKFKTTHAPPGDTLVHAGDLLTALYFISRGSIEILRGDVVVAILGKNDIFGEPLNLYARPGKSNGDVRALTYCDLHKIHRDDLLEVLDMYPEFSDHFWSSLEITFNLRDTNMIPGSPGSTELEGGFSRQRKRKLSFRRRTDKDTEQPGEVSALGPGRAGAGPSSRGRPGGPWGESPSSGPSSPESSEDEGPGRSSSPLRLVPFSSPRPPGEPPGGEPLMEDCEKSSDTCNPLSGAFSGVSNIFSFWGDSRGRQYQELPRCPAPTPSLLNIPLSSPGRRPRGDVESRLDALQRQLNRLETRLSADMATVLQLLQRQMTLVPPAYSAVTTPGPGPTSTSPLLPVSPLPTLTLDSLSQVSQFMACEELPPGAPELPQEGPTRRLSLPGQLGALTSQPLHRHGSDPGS

On to `CC(=O)c1ccc(C(=O)Nc2cccc(NS(=O)(=O)c3ccccc3)c2)o1` [Compound E3, 5-acetyl-N-(3-(phenylsulfonamido)phenyl)furan-2-carboxamide], for which the “excretion of non-urea solutes” value in the test on mice (setting [1]) was “not significantly changed”; in the test with mice (setting [2]) it was “not significantly changed”; in the test with mice (mice, single intragastric gavage, vs control), “not significantly different”. Further, the “urea concentration (urine)” value in the test on mice (setting [1]) is “no significant change”. Further, the urinary osmolality result was “no significant change” with mice (setting [1]), “decreased correspondingly” with mice (setting [2]) and “decreased” in the test on mice (setting [3]). Besides, the urine output entry is reported as “no significant change” in the test on mice (setting [1]); “markedly increased” with mice (UT-B−/− mice, 20 mg/kg single dose, 2 h post administration); “significantly increased” in the test with mice (mice, single intragastric gavage 0.16-20 mg/kg, vs vehicle). Besides, the urinary urea result in the test with mice (setting [2]) is recorded as “decreased correspondingly”; with mice (setting [3]) it was “decreased”. The IC50 against hERG K+ channel was above 33.3 µM.
